In PubChem BioAssay AID256 (DTP/NCI, 2004):
Several values for one entry are separate records, joined by “and”; a condition that tells them apart may be missing. Equal entries are not always repeated. Toxic doses and inconclusive results are not listed. The calls were made as follows: active = survival T/C of 150% or more; inactive = T/C below 125% in these data.

System: CD2F1 mice, L1210 leukemia ip, survival T/C
Assay: NCI In Vivo Anticancer Drug Screen. Data for tumor model L1210 Leukemia (intraperitoneal) in CD2F1 (CDF1) mice
Settings: higher = longer survival
Method in brief: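 In this screen, transplantable tumors were grown in mice given either the compound or its vehicle. Results were expressed as the treated measurement relative to the control measurement.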

[1] = endpoint: mean survival time, dose: 25.0 mg/kg/injection, schedule: Q04DX002 (ip), vehicle: saline
[2] = endpoint: mean survival time, dose: 50.0 mg/kg/injection, schedule: Q04DX002 (ip), vehicle: saline
[3] = endpoint: mean survival time, dose: 100.0 mg/kg/injection, schedule: Q04DX002 (ip), vehicle: saline
[4] = endpoint: mean survival time, dose: 100.0 mg/kg/injection, schedule: Q01DX009 (ip), vehicle: saline with Tween-80
[5] = endpoint: mean survival time, dose: 200.0 mg/kg/injection, schedule: Q01DX009 (ip), vehicle: saline with Tween-80
[6] = endpoint: mean survival time, dose: 100.0 mg/kg/injection, schedule: Q04DX003 (ip), vehicle: saline with Tween-80
[7] = endpoint: mean survival time, dose: 200.0 mg/kg/injection, schedule: Q04DX003 (ip), vehicle: saline with Tween-80
[8] = endpoint: mean survival time, dose: 400.0 mg/kg/injection, schedule: Q01DX009 (ip), vehicle: saline with Tween-80
[9] = endpoint: mean survival time, dose: 400.0 mg/kg/injection, schedule: Q04DX003 (ip), vehicle: saline with Tween-80

Measured: T/C

NCC1CCNCC1
inactive: [1] 94 % of control | [2] 97 % of control | [3] 91 % of control | endpoint: mean survival time, dose: 200.0 mg/kg/injection, schedule: Q04DX002 (ip), vehicle: saline 102 % of control

CN(C)c1ccc(/C=N/NC(=O)c2ccccc2N)c(Cl)c1
inactive: [4] 87 % of control | [5] 87 % of control

CN(C(=O)C(=O)c1ccccc1NC(=O)c1ccc(Cl)cc1)c1ccccc1
inactive: endpoint: mean survival time, dose: 25.0 mg/kg/injection, schedule: Q04DX003 (ip), vehicle: Klucel (hydroxypropylcellulose) (HPC) 102 % of control | endpoint: mean survival time, dose: 50.0 mg/kg/injection, schedule: Q04DX003 (ip), vehicle: Klucel (hydroxypropylcellulose) (HPC) 106 % of control | endpoint: mean survival time, dose: 100.0 mg/kg/injection, schedule: Q04DX003 (ip), vehicle: Klucel (hydroxypropylcellulose) (HPC) 104 % of control

[Cl][Pt+2][Cl].[NH-]C(C(=O)OCc1ccccc1)c1ccccc1.[NH-]C(C(=O)OCc1ccccc1)c1ccccc1 (stereo unspecified)
inactive: endpoint: median survival time, dose: 3.12 mg/kg/injection, schedule: Q04DX003 (ip), vehicle: saline 103 % of control | endpoint: median survival time, dose: 6.25 mg/kg/injection, schedule: Q04DX003 (ip), vehicle: saline 109 % of control | endpoint: median survival time, dose: 12.5 mg/kg/injection, schedule: Q04DX003 (ip), vehicle: saline 98 % of control | endpoint: median survival time, dose: 25.0 mg/kg/injection, schedule: Q04DX003 (ip), vehicle: saline 101 % of control | endpoint: median survival time, dose: 50.0 mg/kg/injection, schedule: Q04DX003 (ip), vehicle: saline 109 % of control | endpoint: median survival time, dose: 100.0 mg/kg/injection, schedule: Q04DX003 (ip), vehicle: saline 109 % of control | endpoint: median survival time, dose: 200.0 mg/kg/injection, schedule: Q04DX003 (ip), vehicle: saline 111 % of control

Nc1ccc2oc(=O)c(C(=O)O)cc2c1
inactive: endpoint: mean survival time, dose: 100.0 mg/kg/injection, schedule: Q01DX001 (ip), vehicle: saline with Tween-80 93 % of control | endpoint: mean survival time, dose: 200.0 mg/kg/injection, schedule: Q01DX001 (ip), vehicle: saline with Tween-80 89 % of control

CCOC(=O)C12CC=CC(CCC1)/C2=N\Nc1ccccc1 (stereo unspecified)
inactive: [4] 108 % of control | [6] 105 % of control | [5] 103 % of control | [7] 103 % of control | [8] 103 % of control | [9] 92 % of control

O=C(Nc1ccccc1)c1ccccc1C1(O)c2ccccc2-c2ccccc21
inactive: [4] 88 % of control | [5] 92 % of control | [8] 91 % of control

CN1CC(NC(=O)N(CCCl)N=O)CC2c3cccc4c3c(cn4N=O)CC21 (stereo unspecified)
active: endpoint: mean survival time, dose: 200.0 mg/kg/injection, schedule: Q01DX001 (ip), vehicle: other 164 % of control | endpoint: mean survival time, dose: 400.0 mg/kg/injection, schedule: Q01DX001 (ip), vehicle: other 289 % of control
inactive: endpoint: mean survival time, dose: 12.5 mg/kg/injection, schedule: Q01DX001 (ip), vehicle: other 105 % of control | endpoint: mean survival time, dose: 25.0 mg/kg/injection, schedule: Q01DX001 (ip), vehicle: other 117 % of control | endpoint: mean survival time, dose: 50.0 mg/kg/injection, schedule: Q01DX001 (ip), vehicle: other 121 % of control

O=C1OC2C(I)C3CC1C2C3 (stereo unspecified)
inactive: [6] 96 % of control | [7] 96 % of control

COc1cc2c(cc1OC)C(CC(C)C)=[N+](C)CC2
inactive: endpoint: mean survival time, dose: 25.0 mg/kg/injection, schedule: Q01DX009 (ip), vehicle: saline with Tween-80 103 % of control | endpoint: mean survival time, dose: 50.0 mg/kg/injection, schedule: Q01DX009 (ip), vehicle: saline with Tween-80 98 % of control | [4] 109 % of control | endpoint: mean survival time, dose: 100.0 mg/kg/injection, schedule: Q04DX002 (ip), vehicle: saline with Tween-80 92 % of control

NCCCOCCOCCOCCOCCCN
inactive: [1] 105 % of control | [2] 101 % of control | endpoint: mean survival time, dose: 100.0 mg/kg/injection, schedule: Q01DX001 (ip), vehicle: saline sonified 97 % of control | [3] 101 % of control

CN1CCOc2ccccc2OCCOCCOc2ccccc2OCC1
inactive: endpoint: mean survival time, dose: 100.0 mg/kg/injection, schedule: Q01DX009 (ip), vehicle: Klucel (hydroxypropylcellulose) (HPC) 105 % of control | endpoint: mean survival time, dose: 200.0 mg/kg/injection, schedule: Q01DX009 (ip), vehicle: Klucel (hydroxypropylcellulose) (HPC) 106 % of control

CCCCCC/C(C)=C(/C#N)C(=O)OC
inactive: endpoint: mean survival time, dose: 75.0 mg/kg/injection, schedule: Q01DX001 (ip), vehicle: saline 94 % of control | endpoint: mean survival time, dose: 150.0 mg/kg/injection, schedule: Q01DX001 (ip), vehicle: saline 97 % of control | endpoint: mean survival time, dose: 300.0 mg/kg/injection, schedule: Q01DX001 (ip), vehicle: saline 96 % of control

Cc1ncc2c(=O)[nH]cnc2n1
inactive: [6] 93 % of control | [7] 91 % of control | [9] 90 % of control

Nc1ncnc2c1ncn2C1OC(COP(=O)(O)O)C(O)C1O (stereo unspecified)
inactive: endpoint: mean survival time, dose: 9.4 mg/kg/injection, schedule: Q03HX016 (ip), vehicle: water 106 % of control | endpoint: mean survival time, dose: 9.4 mg/kg/injection, schedule: Q03HX024 (ip), vehicle: water 109 % of control | endpoint: mean survival time, dose: 12.5 mg/kg/injection, schedule: Q01DX009 (ip), vehicle: saline 98 % of control | endpoint: mean survival time, dose: 12.5 mg/kg/injection, schedule: Q01DX009 (ip), vehicle: water 103 % of control | endpoint: mean survival time, dose: 18.8 mg/kg/injection, schedule: Q03HX016 (ip), vehicle: water 110 % of control | endpoint: mean survival time, dose: 18.8 mg/kg/injection, schedule: Q03HX024 (ip), vehicle: water 107 % of control | endpoint: mean survival time, dose: 25.0 mg/kg/injection, schedule: Q01DX009 (ip), vehicle: saline 104 % of control | endpoint: mean survival time, dose: 25.0 mg/kg/injection, schedule: Q01DX009 (ip), vehicle: water 107 % of control | endpoint: mean survival time, dose: 27.5 mg/kg/injection, schedule: Q03DX024 (ip), vehicle: saline 107 % of control | endpoint: mean survival time, dose: 27.5 mg/kg/injection, schedule: Q04DX003 (ip), vehicle: saline 105 % of control | endpoint: mean survival time, dose: 36.7 mg/kg/injection, schedule: Q03DX024 (ip), vehicle: saline 115 % of control | endpoint: mean survival time, dose: 36.7 mg/kg/injection, schedule: Q04DX003 (ip), vehicle: saline 103 % of control | endpoint: mean survival time, dose: 37.5 mg/kg/injection, schedule: Q03HX016 (ip), vehicle: water 114 % of control | endpoint: mean survival time, dose: 37.5 mg/kg/injection, schedule: Q03HX024 (ip), vehicle: water 113 % of control | endpoint: mean survival time, dose: 50.0 mg/kg/injection, schedule: Q01DX009 (ip), vehicle: saline 100 % of control | endpoint: mean survival time, dose: 50.0 mg/kg/injection, schedule: Q01DX009 (ip), vehicle: water 109 % of control | endpoint: mean survival time, dose: 55.0 mg/kg/injection, schedule: Q03DX024 (ip), vehicle: saline 112 % of control | endpoint: mean survival time, dose: 55.0 mg/kg/injection, schedule: Q04DX003 (ip), vehicle: saline 104 % of control | endpoint: mean survival time, dose: 73.3 mg/kg/injection, schedule: Q03DX024 (ip), vehicle: saline 118 % of control | endpoint: mean survival time, dose: 73.3 mg/kg/injection, schedule: Q04DX003 (ip), vehicle: saline 106 % of control | endpoint: mean survival time, dose: 75.0 mg/kg/injection, schedule: Q03HX016 (ip), vehicle: water 115 % of control | endpoint: mean survival time, dose: 75.0 mg/kg/injection, schedule: Q03HX024 (ip), vehicle: water 118 % of control | endpoint: mean survival time, dose: 100.0 mg/kg/injection, schedule: Q01DX009 (ip), vehicle: saline 102 % of control | endpoint: mean survival time, dose: 100.0 mg/kg/injection, schedule: Q01DX009 (ip), vehicle: water 115 % of control | endpoint: mean survival time, dose: 200.0 mg/kg/injection, schedule: Q01DX009 (ip), vehicle: saline 102 % of control and 108 % of control | endpoint: mean survival time, dose: 200.0 mg/kg/injection, schedule: Q01DX009 (ip), vehicle: water 119 % of control | endpoint: mean survival time, dose: 315.0 mg/kg/injection, schedule: Q01DX009 (ip), vehicle: saline 106 % of control | endpoint: mean survival time, dose: 400.0 mg/kg/injection, schedule: Q01DX009 (ip), vehicle: saline 114 % of control and 102 % of control | endpoint: mean survival time, dose: 470.0 mg/kg/injection, schedule: Q01DX009 (ip), vehicle: saline 110 % of control | endpoint: mean survival time, dose: 700.0 mg/kg/injection, schedule: Q01DX009 (ip), vehicle: saline 112 % of control | endpoint: mean survival time, dose: 800.0 mg/kg/injection, schedule: Q01DX009 (ip), vehicle: saline 122 % of control | endpoint: median survival time, dose: 20.0 mg/kg/injection, schedule: Q01DX009 (ip), vehicle: water 102 % of control | endpoint: median survival time, dose: 40.0 mg/kg/injection, schedule: Q01DX009 (ip), vehicle: water 105 % of control and 107 % of control | endpoint: median survival time, dose: 80.0 mg/kg/injection, schedule: Q01DX009 (ip), vehicle: water 124 % of control and 108 % of control | endpoint: median survival time, dose: 160.0 mg/kg/injection, schedule: Q01DX009 (ip), vehicle: water 117 % of control
active: endpoint: mean survival time, dose: 375.0 mg/kg/injection, schedule: Q03HX024 (ip), vehicle: saline 156 % of control
